Data: patent US5998377A, “Means for treating prostate cancer” (ASTA Medica Aktiengesellschaft, priority 1998, dated 1999)
Non-standard residues stand in square brackets, D forms with d. Residues, ends and D or L forms follow the SMILES beside them. dPhe(4-Cl) = N[C@H](Cc1ccc(Cl)cc1)C(=O)O; d2Nal = N[C@H](Cc1ccc2ccccc2c1)C(=O)O; dCit = NC(=O)NCCC[C@@H](N)C(=O)O; d3Pal = N[C@H](Cc1cccnc1)C(=O)O

How the values were obtained:
[1] = system: prostate carcinoma patients; details: cited from earlier work
BPH patients [2] = details: cited from earlier work
BPH patients [3] = experiment: Clinical therapy of BPH with Cetrorelix (Example 1); format: in vivo, human; details: therapy regimen of 4 to 8 weeks
Method: The invention will be explained in detail using the following clinical results:
Cetrorelix is administered in a dose of 0.5 mg to 2 mg daily for 4 to 8 weeks for the therapy of BPH. A dose of 5 mg to 30 mg, dispensed once per week or every 10 days also over a time period of 4 to 8 weeks as well as one every two weeks or one injection per month of 20 mg to 60 mg can also decisively improve the clinical symptoms and signs. […] The prostate volume decreases by 20 to 40% during the treatment time of 4 to 8 weeks. […] In addition, at least 30% of the patients achieve an improvement of the urine flow of 6 ml/sec with this therapy. This is almost equivalent to an improvement like that associated with the golden standard operation, and in considerably shorter time. […] These clinical benefits continue for at least 3 to 6 months after therapy. This allows a long-term therapy of BPH with only an intermittent treatment of 2 to max. 4 injection cycles over 4 to 8 weeks.

[4] = prostate carcinoma patients, end of the 6 weeks of therapy
[5] = BPH patients, 500 μg every 12 hours for 4 weeks

In the case of `CC(=O)N[C@H](Cc1ccc2ccccc2c1)C(=O)N[C@H](Cc1ccc(Cl)cc1)C(=O)N[C@H](Cc1cccnc1)C(=O)N[C@@H](CO)C(=O)N[C@@H](Cc1ccc(O)cc1)C(=O)N[C@H](CCCNC(N)=O)C(=O)N[C@@H](CC(C)C)C(=O)N[C@@H](CCCNC(=N)N)C(=O)N1CCC[C@H]1C(=O)N[C@H](C)C(N)=O` [Cetrorelix] (Ac-[d2Nal][dPhe(4-Cl)][d3Pal]SY[dCit]LRP[dA]-NH2), the “testosterone levels, initially” value ([1]; prostate carcinoma patients (all patients), 500 μg every 12 hours, initially) is listed as “lowering in testosterone levels to a castration level”, the “overall condition of the patient” value [1, 4] is listed as “considerable improvement” and the “testosterone values at the end of therapy” value [1, 4] is listed as “at the castration levels”. The “testosterone levels, initially” value (BPH patients [2]; BPH patients (all patients), 500 μg every 12 hours, initially) was “lowering in testosterone levels to a castration level”, the prostate volume (BPH patients [2]; [5]) was “a decrease in prostate volume” and the symptoms of dysuria (BPH patients [2]; [5]) was “distinct decrease of the symptoms of dysuria”. The “testosterone levels during treatment” value (BPH patients [2]; BPH patients, 500 μg every 12 hours for 4 weeks, no castration values during the last three weeks) was “fluctuated at subnormal levels”, the “increase of the peak flow of the urine” value (BPH patients [3]) was “approximately 3 ml/sec” and the “patients achieving an improvement of the urine flow of 6 ml/sec” value (BPH patients [3]) was “at least 30%”. For the same compound, the quality of life (BPH patients [3]) was “significant improvements as regards quality of life”, the sexual performance (BPH patients [3]) was “No limitations in sexual performance are observed” and the testosterone decrease (BPH patients [3]) was “Submaximal decreases of testosterone occur, but these are above those levels associated with castration”.
